Here are results for 15 molecules from US10975068B2, “6-aminopyridin-3-yl thiazoles as modulators of RORγT” (Janssen Pharmaceutica NV, priority 2016, dated 2021).

Like-named read-outs stand apart in the source and are kept apart here.

Experiment [1] has as its target human RORγt ligand binding domain (RORγt LBD) (Homo sapiens (Human), UniProt P51449). The experiment is described as follows: RORγt ThermoFluor® assay (thermal shift binding). To be noted: read-out: ThermoFluor® Assay, Kd. The gist of the method:
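His-tagged human RORγt LBD (0.065 mg/mL) with 60 μM 1,8-ANS in 100 mM Hepes pH 7.0, 10 mM NaCl, 2.5 mM GSH, 0.002% Tween-20 was heated at 1 °C/min.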
Background: In DSF a fluorescence change marks the thermal transition of the protein.

The next experiment deals with full-length human RORγt (Homo sapiens (Human), UniProt P51449). The experiment is described as follows: RORγt (full-length human) reporter assay, Conditions A. The format is cell-based. To be noted: for IC50: read-out: RORγt (FL) Reporter Assay A, IC50; for inhibition at 6 µM: read-out: RORγt (FL) Reporter Assay A, % inhibition @ 6 μM. The text has this: RORγt (Full-Length Human) Reporter Assay:
Cells used in this assay were transiently co-transfected with three different plasmids, one expressing the GAL4-DNA binding domain (DBD)-RORγt fusion protein under control of a CMV promoter (NH2-Gal4-DBD:RORC-COOH in pCMV-BD, Stratagene #211342), and two reporter plasmids—the firefly luciferase reporter under control of a GAL4 promoter (pFR-Luc 2×GAL4) and Renilla luciferase reporter under control of CMV promoter (pRL-CMV, Promega # E2261). The full-length coding sequence was used for human RORγt, i.e., nucleotides 142-1635 of human RORγt, transcript variant 2, NCBI Accession: NM_001001523.1 (SEQ ID NO:1). HEK293T cells were plated at 35000 per well in 96-well plate in medium of MEM with 8.6% FBS. After 18-22 hours incubation, the transfection was carried out by using a PEI solution with 170.5 ng total DNA/well (50 ng pCMV-BD-ROR plus 20 ng of pFR-Luc reporter and 0.5 ng of pRL-CMV reporter plus 100 ng Carrier DNA (Clontech #630440) for each well). 4-6 hours after transfection, cells were treated with compounds for overnight in the medium with final concentration of FBS 1.1% and DMSO 0.1%. After overnight (16 to 20 hours) incubation, media were removed and cells were lysed with 20 μL 1× Passive Lysis Buffer (Promega) for 10-15 minutes. Luminescence was measured using a BMG LUMIstar OPTIMA plate reader, after addition of 75 μL/well firefly luciferase buffer, followed by 75 μL/well Renilla luciferase buffer. To calculate the effect of compounds on RORγt activity, firefly values were normalized against values of DMSO only and values of reference compound at saturating concentration, then further normalized against Renilla signals. IC50s were generated by plotting final Renilla normalized data against compound concentration and percent inhibition was calculated against DMSO control.

Chain of human RORγt ligand binding domain (RORγt LBD) (P51449 other isoform, or with tags, fused parts or gaps): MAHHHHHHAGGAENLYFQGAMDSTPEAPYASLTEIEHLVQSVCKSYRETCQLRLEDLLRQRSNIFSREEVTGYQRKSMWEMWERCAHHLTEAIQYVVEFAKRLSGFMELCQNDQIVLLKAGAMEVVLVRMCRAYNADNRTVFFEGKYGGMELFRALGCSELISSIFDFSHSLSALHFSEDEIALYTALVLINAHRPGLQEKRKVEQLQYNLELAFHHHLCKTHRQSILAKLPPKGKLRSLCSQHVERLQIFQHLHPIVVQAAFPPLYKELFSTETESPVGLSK
Chain of full-length human RORγt (P51449 other isoform, or with tags, fused parts or gaps): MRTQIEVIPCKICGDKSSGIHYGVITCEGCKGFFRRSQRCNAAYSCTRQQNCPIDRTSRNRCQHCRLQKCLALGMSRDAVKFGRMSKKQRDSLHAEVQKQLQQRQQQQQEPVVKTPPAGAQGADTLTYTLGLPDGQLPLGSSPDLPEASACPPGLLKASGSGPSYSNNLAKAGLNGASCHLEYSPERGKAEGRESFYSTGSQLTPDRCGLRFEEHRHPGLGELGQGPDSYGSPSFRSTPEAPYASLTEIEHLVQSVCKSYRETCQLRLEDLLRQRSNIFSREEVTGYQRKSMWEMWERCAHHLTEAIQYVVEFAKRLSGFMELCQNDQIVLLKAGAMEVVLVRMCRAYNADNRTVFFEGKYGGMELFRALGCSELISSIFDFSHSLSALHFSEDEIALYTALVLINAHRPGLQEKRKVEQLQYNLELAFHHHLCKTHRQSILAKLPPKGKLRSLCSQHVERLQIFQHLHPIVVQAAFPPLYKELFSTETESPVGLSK

Take `CC(C)(O)CNC(=O)c1nc(C(=O)N2CCC(F)CC2)c(-c2cnc(NC3CC4(C3)CC(F)(F)C4)cc2C(F)(F)F)s1` [Example 22, 5-(6-((6,6-Difluorospiro[3.3]heptan-2-yl)amino)-4-(trifluoromethyl)pyridin-3-yl)-4-(4-fluoropiperidine-1-carbonyl)-N-(2-hydroxy-2-methylpropyl)thiazole-2-carboxamide]: the Kd (as a rule, the concentration at which binding is half-saturated) in experiment [1] was found to be 440 nM. In addition, on full-length human RORγt (Conditions A), the IC50 (as a rule, the point on the concentration scale where inhibition reaches its midpoint) came to 910 nM and the inhibition (commonly the relative decrease from the control value, in per cent) at 6 µM is 84%.

`CC(C)(O)CNC(=O)c1nc(C(=O)N2CCC(F)CC2)c(-c2cnc(NCCC(F)(F)F)c(C(F)(F)F)c2)s1` [Example 7, 4-(4-Fluoropiperidine-1-carbonyl)-N-(2-hydroxy-2-methylpropyl)-5-(5-(trifluoromethyl)-6-((3,3,3-trifluoropropyl)amino)pyridin-3-yl)thiazole-2-carboxamide]: in experiment [1], the Kd worked out at 230 nM. Further, at full-length human RORγt (Conditions A), the IC50 worked out at 620 nM and the inhibition at 6 µM amounted to 80%.

With `C[C@H]1CCCCN1C(=O)c1nc(C(=O)NCC(C)(C)O)sc1-c1cnc(NC2CCCCC2)c(C(F)(F)F)c1` [Example 4, (S)-5-(6-(Cyclohexylamino)-5-(trifluoromethyl)pyridin-3-yl)-N-(2-hydroxy-2-methylpropyl)-4-(2-methylpiperidine-1-carbonyl)thiazole-2-carboxamide], the Kd in experiment [1] amounted to 0.98 nM. Further, at full-length human RORγt (Conditions A), the IC50 turned out to be 9 nM and the inhibition at 6 µM was 106%.

For the molecule `CC(C)(O)CNC(=O)c1nc(C(=O)N2CCC(F)CC2)c(-c2cnc(NC3CCC3)cc2C(F)(F)F)s1` [Example 9, 5-(6-(Cyclobutylamino)-4-(trifluoromethyl)pyridin-3-yl)-4-(4-fluoropiperidine-1-carbonyl)-N-(2-hydroxy-2-methylpropyl)thiazole-2-carboxamide], in experiment [1], the Kd was 77 nM. For the same molecule, on full-length human RORγt (Conditions A), the IC50 is 330 nM and the inhibition at 6 µM was 104%.

On to `C[C@H]1CCCCN1C(=O)c1nc(C(=O)NCC(C)(C)O)sc1-c1cnc(NC2CCCCC2)cc1C(F)(F)F` [Example 5, (S)-5-(6-(Cyclohexylamino)-4-(trifluoromethyl)pyridin-3-yl)-N-(2-hydroxy-2-methylpropyl)-4-(2-methylpiperidine-1-carbonyl)thiazole-2-carboxamide], for which, in experiment [1], the Kd is 0.25 nM. In addition, on full-length human RORγt (Conditions A), the IC50 turned out to be 9 nM and the inhibition at 6 µM is 104%.

For `CC(C)(O)CNC(=O)c1nc(C(=O)N2CCC(F)CC2)c(-c2cnc(NC3CCCCC3)c(C#N)c2C(F)(F)F)s1` [Example 68, 5-(5-Cyano-6-(cyclohexylamino)-4-(trifluoromethyl)pyridin-3-yl)-4-(4-fluoropiperidine-1-carbonyl)-N-(2-hydroxy-2-methylpropyl)thiazole-2-carboxamide], the Kd in experiment [1] was determined as 370 nM. For the same molecule, at full-length human RORγt (Conditions A), the IC50 came out at 1100 nM and the inhibition at 6 µM is 70%.

In the case of `CC(C)S(=O)(=O)Nc1cc(C(F)(F)F)c(-c2sc(C(=O)NCC(C)(C)O)nc2C(=O)N2CCC(F)CC2)cn1` [Comparator Example 3, 4-(4-Fluoropiperidine-1-carbonyl)-N-(2-hydroxy-2-methylpropyl)-5-(6-((1-methylethyl)sulfonamido)-4-(trifluoromethyl)pyridin-3-yl)thiazole-2-carboxamide, reference compound], the Kd in experiment [1] turned out to be 53000 nM. In addition, the IC50 at full-length human RORγt (HEK293T cells) was over 6000 nM.

Consider `CC(C)(O)CNC(=O)c1nc(C(=O)N2CCC(F)CC2)c(-c2cnc(NC3CCCCC3)c(C(F)(F)F)c2)s1` [Example 1, 5-(6-(Cyclohexylamino)-5-(trifluoromethyl)pyridin-3-yl)-4-(4-fluoropiperidine-1-carbonyl)-N-(2-hydroxy-2-methylpropyl)thiazole-2-carboxamide], for which the Kd in experiment [1] stood at 35 nM. Also, the “RORγt (FL) Reporter Assay A, % inhibition (value marked **)” value at full-length human RORγt (Conditions A, marked **: footnote not shown) is recorded as 100** %. For the same molecule, the IC50 on full-length human RORγt (Conditions A) turned out to be 79 nM.

With `CC(C)(O)CNC(=O)c1nc(C(=O)N2CCC(F)CC2)c(-c2cnc(NCCC(F)(F)F)cc2C(F)(F)F)s1` [Example 8, 4-(4-Fluoropiperidine-1-carbonyl)-N-(2-hydroxy-2-methylpropyl)-5-(4-(trifluoromethyl)-6-((3,3,3-trifluoropropyl)amino)pyridin-3-yl)thiazole-2-carboxamide], the Kd in experiment [1] amounted to 120 nM. Besides, at full-length human RORγt (Conditions A), the IC50 was 340 nM and the inhibition at 6 µM is 95%.

On to `CC(C)(O)CNC(=O)c1nc(C(=O)N2CCC(F)CC2)c(-c2cnc(NC3CCCCC3)cc2C(F)F)s1` [Example 14, 5-(6-(Cyclohexylamino)-4-(difluoromethyl)pyridin-3-yl)-4-(4-fluoropiperidine-1-carbonyl)-N-(2-hydroxy-2-methylpropyl)thiazole-2-carboxamide], for which, in experiment [1], the Kd worked out at 33 nM. Further, at full-length human RORγt (Conditions A), the IC50 was 76 nM and the inhibition at 6 µM came to 105%.

`Cc1cc(NC2CCCCC2)ncc1-c1sc(C(=O)NCC(C)(C)O)nc1C(=O)N1CCC(F)CC1` [Example 67, 5-(6-(Cyclohexylamino)-4-methylpyridin-3-yl)-4-(4-fluoropiperidine-1-carbonyl)-N-(2-hydroxy-2-methylpropyl)thiazole-2-carboxamide]: in experiment [1], the Kd was found to be 52 nM. Also, at full-length human RORγt (Conditions A), the IC50 was 400 nM and the inhibition at 6 µM stood at 98%.

As for `CC(C)(O)CNC(=O)c1nc(C(=O)N2CCC(F)CC2)c(-c2cnc(NC3CCCC3)cc2C(F)(F)F)s1` [Example 10, 5-(6-(Cyclopentylamino)-4-(trifluoromethyl)pyridin-3-yl)-4-(4-fluoropiperidine-1-carbonyl)-N-(2-hydroxy-2-methylpropyl)thiazole-2-carboxamide], the Kd in experiment [1] stood at 8.1 nM. At full-length human RORγt (Conditions A), the IC50 came to 71 nM and the inhibition at 6 µM is 108%.

Consider `CC(C)(O)CNC(=O)c1nc(C(=O)N2CCC(F)CC2)c(-c2cnc(NC3CCC(F)(F)C3)cc2C(F)(F)F)s1` (centres unmarked) [Example 20, 5-(6-((3,3-Difluorocyclopentyl)amino)-4-(trifluoromethyl)pyridin-3-yl)-4-(4-fluoropiperidine-1-carbonyl)-N-(2-hydroxy-2-methylpropyl)thiazole-2-carboxamide], for which the Kd in experiment [1] stood at 52 nM. Besides, at full-length human RORγt (Conditions A), the IC50 was found to be 200 nM and the inhibition at 6 µM is 110%.

Regarding `CC(C)(O)CNC(=O)c1nc(C(=O)N2CCC(F)CC2)c(-c2cnc(NC3CCC(F)(F)CC3)cc2C(F)(F)F)s1` [Example 18, 5-(6-((4,4-Difluorocyclohexyl)amino)-4-(trifluoromethyl)pyridin-3-yl)-4-(4-fluoropiperidine-1-carbonyl)-N-(2-hydroxy-2-methylpropyl)thiazole-2-carboxamide], in experiment [1], the Kd is 80 nM. Also, on full-length human RORγt (Conditions A), the IC50 worked out at 620 nM and the inhibition at 6 µM stood at 106%.

As to `CC(C)(O)CNC(=O)c1nc(C(=O)N2CCC(F)CC2)c(-c2cnc(NC3CCCCC3)c(OC(F)F)c2)s1` [Example 62, 5-(6-(Cyclohexylamino)-5-(difluoromethoxy)pyridin-3-yl)-4-(4-fluoropiperidine-1-carbonyl)-N-(2-hydroxy-2-methylpropyl)thiazole-2-carboxamide], the Kd in experiment [1] was determined as 12 nM. Further, on full-length human RORγt (Conditions A), the IC50 came to 160 nM and the inhibition at 6 µM is 98%.
